The source of these data is patent US7528252B2, “Derivatives of triazoly-imidazopyridine useful as ligands of the adenosine A2a receptor and their use as medicaments” (Sigma-Tau Industrie Farmaceutiche Riunite S.p.A., priority 2002, dated 2009).

Read-outs that look alike come from different tables or passages of the source.

The target of test [1] is M1 (Homo sapiens, UniProt P11229). Put plainly: Receptor binding study, M1. To be noted: mean values, n = 2, read-out: percent inhibition of control specific binding.
Test [2] deals with 5-HT transporter (Homo sapiens, UniProt P31645). The test can be described thus: Receptor binding study, 5-HT transporter. The note with it: read-out: percent inhibition of control specific binding.
Sequence of 5-HT transporter (P31645 whole entry, species assumed): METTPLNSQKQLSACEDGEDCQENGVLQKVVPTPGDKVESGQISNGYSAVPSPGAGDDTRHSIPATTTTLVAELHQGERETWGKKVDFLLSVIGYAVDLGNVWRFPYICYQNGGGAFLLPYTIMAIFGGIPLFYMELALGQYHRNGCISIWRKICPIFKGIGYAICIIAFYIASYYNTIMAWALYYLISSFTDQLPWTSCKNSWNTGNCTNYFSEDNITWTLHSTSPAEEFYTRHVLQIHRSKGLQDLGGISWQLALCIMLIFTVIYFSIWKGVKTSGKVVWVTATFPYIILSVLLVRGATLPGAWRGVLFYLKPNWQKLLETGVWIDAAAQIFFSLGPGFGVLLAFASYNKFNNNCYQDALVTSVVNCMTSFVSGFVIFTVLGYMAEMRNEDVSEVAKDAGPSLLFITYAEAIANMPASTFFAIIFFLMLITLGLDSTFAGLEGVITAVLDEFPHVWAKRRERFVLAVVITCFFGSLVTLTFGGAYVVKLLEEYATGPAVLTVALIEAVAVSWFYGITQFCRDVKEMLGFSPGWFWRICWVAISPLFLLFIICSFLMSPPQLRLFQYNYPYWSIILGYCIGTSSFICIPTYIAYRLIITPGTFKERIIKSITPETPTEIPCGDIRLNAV
Test [3] concerns BZD (central). The test can be described thus: Receptor binding study, BZD (central). The note with it: 1 μM; mean values, n = 2.
Test [4] addresses D1 (Homo sapiens, UniProt P21728). Put plainly: Receptor binding study, D1. The note with it: mean values, n = 2, read-out: percent inhibition of control specific binding.
Test [5] concerns the target D4.4 (h) (Homo sapiens, UniProt P21917). Put plainly: Receptor binding study, D4.4. The note with it: mean values, n = 2, read-out: percent inhibition of control specific binding.
The target of test [6] is GABAb (Homo sapiens, UniProt Q9UBS5). The test can be described thus: Receptor binding study, GABAb. The note with it: mean values, n = 2, read-out: percent inhibition of control specific binding.
Sequence of GABAb (Q9UBS5 15-961 limits assumed): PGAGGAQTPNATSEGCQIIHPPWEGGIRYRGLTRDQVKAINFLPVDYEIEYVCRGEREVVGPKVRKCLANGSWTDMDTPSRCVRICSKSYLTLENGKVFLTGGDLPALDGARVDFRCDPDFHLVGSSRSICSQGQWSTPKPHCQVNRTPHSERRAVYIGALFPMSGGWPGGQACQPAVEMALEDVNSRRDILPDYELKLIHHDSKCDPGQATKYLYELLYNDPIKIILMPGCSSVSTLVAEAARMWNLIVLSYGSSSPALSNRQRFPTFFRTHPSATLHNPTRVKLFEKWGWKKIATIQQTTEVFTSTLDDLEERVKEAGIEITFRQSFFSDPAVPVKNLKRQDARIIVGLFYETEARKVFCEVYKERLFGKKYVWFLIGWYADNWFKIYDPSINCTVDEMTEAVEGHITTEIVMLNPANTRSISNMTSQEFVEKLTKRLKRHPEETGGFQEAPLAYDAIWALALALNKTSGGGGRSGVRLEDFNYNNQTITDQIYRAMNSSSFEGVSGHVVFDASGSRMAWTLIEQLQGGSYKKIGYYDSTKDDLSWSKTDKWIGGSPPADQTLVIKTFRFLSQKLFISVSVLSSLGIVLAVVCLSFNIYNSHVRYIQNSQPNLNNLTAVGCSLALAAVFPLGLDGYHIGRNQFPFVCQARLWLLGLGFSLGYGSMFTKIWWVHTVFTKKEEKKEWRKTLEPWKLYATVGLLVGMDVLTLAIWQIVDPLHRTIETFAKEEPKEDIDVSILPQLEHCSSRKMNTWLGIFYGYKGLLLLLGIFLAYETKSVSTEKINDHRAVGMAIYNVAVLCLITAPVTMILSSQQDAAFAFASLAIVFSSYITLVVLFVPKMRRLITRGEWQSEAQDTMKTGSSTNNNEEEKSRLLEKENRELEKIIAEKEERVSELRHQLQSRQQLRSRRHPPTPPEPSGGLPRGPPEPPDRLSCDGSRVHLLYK
Sequence of GABAb (O75899 42-941 partner): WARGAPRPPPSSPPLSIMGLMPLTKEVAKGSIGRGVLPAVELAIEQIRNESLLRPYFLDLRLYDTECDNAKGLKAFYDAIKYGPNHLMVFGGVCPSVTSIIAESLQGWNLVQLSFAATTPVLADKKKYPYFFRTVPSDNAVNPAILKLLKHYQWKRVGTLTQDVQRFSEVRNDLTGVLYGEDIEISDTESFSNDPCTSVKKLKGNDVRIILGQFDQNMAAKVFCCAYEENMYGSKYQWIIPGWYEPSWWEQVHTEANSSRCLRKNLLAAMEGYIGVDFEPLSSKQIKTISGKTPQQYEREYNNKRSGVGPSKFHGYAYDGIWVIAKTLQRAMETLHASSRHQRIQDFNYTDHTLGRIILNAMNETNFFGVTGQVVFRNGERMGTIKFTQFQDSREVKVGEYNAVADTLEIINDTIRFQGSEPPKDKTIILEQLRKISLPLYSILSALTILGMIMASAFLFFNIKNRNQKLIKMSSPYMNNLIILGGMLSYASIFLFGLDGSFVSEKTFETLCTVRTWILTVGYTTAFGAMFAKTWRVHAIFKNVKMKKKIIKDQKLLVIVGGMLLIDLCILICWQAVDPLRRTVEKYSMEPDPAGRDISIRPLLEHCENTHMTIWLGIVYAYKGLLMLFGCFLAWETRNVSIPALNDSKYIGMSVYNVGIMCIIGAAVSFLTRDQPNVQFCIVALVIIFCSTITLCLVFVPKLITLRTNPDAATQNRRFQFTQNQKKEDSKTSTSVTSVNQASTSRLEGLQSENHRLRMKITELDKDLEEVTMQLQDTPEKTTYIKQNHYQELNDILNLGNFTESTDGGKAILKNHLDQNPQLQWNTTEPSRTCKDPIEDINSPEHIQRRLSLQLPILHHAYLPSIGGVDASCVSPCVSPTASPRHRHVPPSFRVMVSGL
The target of test [7] is T1, Cholinetransporter (Homo sapiens, UniProt Q9GZV3).
T1 sequence (Q9GZV3 1-580): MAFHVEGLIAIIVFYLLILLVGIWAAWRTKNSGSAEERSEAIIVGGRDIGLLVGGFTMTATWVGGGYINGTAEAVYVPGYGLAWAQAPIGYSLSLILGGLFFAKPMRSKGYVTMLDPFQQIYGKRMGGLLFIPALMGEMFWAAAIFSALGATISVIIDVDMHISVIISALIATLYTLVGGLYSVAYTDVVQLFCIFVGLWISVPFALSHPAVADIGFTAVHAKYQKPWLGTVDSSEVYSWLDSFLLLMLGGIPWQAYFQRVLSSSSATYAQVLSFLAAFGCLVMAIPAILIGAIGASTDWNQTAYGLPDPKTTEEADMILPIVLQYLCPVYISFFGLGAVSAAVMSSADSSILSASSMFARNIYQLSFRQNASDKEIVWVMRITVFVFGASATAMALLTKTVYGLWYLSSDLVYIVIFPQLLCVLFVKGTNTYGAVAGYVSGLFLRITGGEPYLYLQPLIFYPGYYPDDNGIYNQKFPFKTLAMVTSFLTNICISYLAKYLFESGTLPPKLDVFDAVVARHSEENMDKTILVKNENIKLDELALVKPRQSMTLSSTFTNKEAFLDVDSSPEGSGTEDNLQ
Put plainly: Receptor binding study, Choline transporter. To be noted: 1 μM; mean values, n = 2; read-out: percent inhibition of control specific binding.

In test [8] the test system is P2X. The test can be described thus: Receptor binding study, P2X. The note with it: 1 μM; mean values, n = 2.
Test [9] concerns the target T2, human A2a receptor (Homo sapiens, UniProt P29274). The note with it: ratio of receptor affinity (selectivity).
For test [10], the target named is T2, human A2a receptor. The test can be described thus: biochemical.
The test system of test [11] is mice. The test can be described thus: Forced swim test in mice. The format is in vivo. The note with it: 60 minutes before the test; 4 minutes of testing period. The protocol:
Mice were dropped individually into glass cylinders (height: 25 cm, internal diameter 10 cm) containing 10 cm water, maintained at 23° C. The immobility time (sec) was measured during 4 minutes of test. A mouse was judged to be immobile when it remained floating in the water, making only the necessary movements to keep its head above water. Test compound ST 1535 was administered orally to mice, 60 minutes before the test.

Test [12] concerns Kainate. The test can be described thus: Receptor binding study, Kainate. To be noted: 1 μM; mean values, n = 2.
Test [13] has as its target β1 (Homo sapiens, UniProt P08588). Put plainly: Receptor binding study, β1. To be noted: mean values, n = 2, read-out: percent inhibition of control specific binding.
In test [14] the target is T3, human A3 subtype adenosine receptor (Homo sapiens, UniProt P0DMS8).
T3 construct: expressed in transfected cells; host or cells: HEK-293
T3 sequence (P0DMS8 whole entry): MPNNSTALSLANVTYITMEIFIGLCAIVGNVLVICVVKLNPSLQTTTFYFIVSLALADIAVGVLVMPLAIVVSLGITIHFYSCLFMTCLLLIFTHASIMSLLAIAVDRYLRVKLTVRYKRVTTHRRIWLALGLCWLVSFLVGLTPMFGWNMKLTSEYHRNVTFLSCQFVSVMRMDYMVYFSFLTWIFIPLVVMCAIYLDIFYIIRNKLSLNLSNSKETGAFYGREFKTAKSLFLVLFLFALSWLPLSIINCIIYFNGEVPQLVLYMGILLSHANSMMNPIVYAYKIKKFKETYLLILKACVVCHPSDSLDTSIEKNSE
The test can be described thus: Affinity towards the adenosine A3 receptor ([125I]AB-MECA binding, HEK-293 membranes). To be noted: test compounds; read-out: A3 (h) Ki.

Test [15] deals with AMPA. Put plainly: Receptor binding study, AMPA. To be noted: 1 μM; mean values, n = 2.
In test [16] the test system is PCP. Put plainly: Receptor binding study, PCP. To be noted: 1 μM; mean values, n = 2.
Test [17] has as its target 5-HT1A (Homo sapiens, UniProt P08908). Put plainly: Receptor binding study, 5-HT1A. To be noted: mean values, n = 2, read-out: percent inhibition of control specific binding.
In test [18] the test system is mice. The test can be described thus: Capacity to antagonise CGS 21680 induced catalepsy. The format is in vivo. The note with it: orally 5 mg/Kg and 10 mg/Kg, 30 minutes prior to CGS 21680 (10 μg/5 μl/mouse i.c.v.); scored 30′, 60′, 120′, 180′. The protocol: (§1) 10 CD1 male mice were used per group. For this test, a steel bar, 10 cm long, was placed at a height of 4.5 cm above the support surface. Onto this, were placed the front legs of the animals. The presence of catalepsy was determined by measuring the time (in seconds) the animal remained in the posture placed. Later, this parameter was placed relatively, on a scale of rising values (0 to 5) through which, the degree of catalepsy determined in both control animals and in these subjected to treatment with the substances under test could be proportionately expressed.
For this study, the product ST 1535 was used. Catalepsy was induced in the animals through the intracerebroventricular administration of CGS 21680 (10 μg/5 μl/mouse), 30 minutes prior to testing for the catalepsy score. The test compound was administered orally at a dose of 5 mg/Kg and 10 mg/Kg , 30 minutes prior to treatment with CGS 21680.
The catalepsy score was derived in the manner described following treatment with OGS 21680 after the following times: 30′, 60′ 120′, 180′.

Test [19] has as its system CD1 male mice. The test can be described thus: Capacity of the products to induce catalepsy in mice. To be noted: endoperitoneal, 30 minutes prior to the test. The format is in vivo. On the procedure:
as §1
The reference products and these in this study were administered endoperitoneally, in a volume of 10 ml/kg, 30 minutes prior to the test.
Except for CGS 21680 (reference compound) which was dissolved in 0.9% NaCl, the products in the study and the control antagonist ZM 241385 were solubilised in DMSO and then diluted in Cremofor EL and 0.9% NaCl (final concentrations: DMSO 15%, Cremofor EL 15%, NaCl 0.9%).

Test [20] has as its system ADOtransporter. Put plainly: Receptor binding study, ADO transporter. To be noted: 1 μM; mean values, n = 2.
Test [21] concerns α2(non-selective). The test can be described thus: Receptor binding study, α2. The note with it: 1 μM; mean values, n = 2.
The target in test [22] is 5-HT3 (h) (Homo sapiens, UniProt P46098). The test can be described thus: Receptor binding study, 5-HT3. To be noted: mean values, n = 2, read-out: percent inhibition of control specific binding.
Sequence of 5-HT3 (h) (P46098 24-478): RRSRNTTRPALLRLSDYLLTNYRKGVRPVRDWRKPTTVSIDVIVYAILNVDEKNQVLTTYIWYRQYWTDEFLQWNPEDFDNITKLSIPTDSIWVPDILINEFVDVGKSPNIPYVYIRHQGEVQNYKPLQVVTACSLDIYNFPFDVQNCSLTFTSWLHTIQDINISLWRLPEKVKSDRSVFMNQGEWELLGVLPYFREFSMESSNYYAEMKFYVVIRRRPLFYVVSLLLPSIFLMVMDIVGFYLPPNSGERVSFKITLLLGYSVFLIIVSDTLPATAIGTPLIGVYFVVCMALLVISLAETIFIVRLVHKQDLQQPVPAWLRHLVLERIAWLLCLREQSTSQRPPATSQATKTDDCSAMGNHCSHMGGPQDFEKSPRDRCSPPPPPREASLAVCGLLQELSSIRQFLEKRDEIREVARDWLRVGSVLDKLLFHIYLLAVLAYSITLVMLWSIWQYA

Sequence of 5-HT1A (P08908 whole entry, species assumed): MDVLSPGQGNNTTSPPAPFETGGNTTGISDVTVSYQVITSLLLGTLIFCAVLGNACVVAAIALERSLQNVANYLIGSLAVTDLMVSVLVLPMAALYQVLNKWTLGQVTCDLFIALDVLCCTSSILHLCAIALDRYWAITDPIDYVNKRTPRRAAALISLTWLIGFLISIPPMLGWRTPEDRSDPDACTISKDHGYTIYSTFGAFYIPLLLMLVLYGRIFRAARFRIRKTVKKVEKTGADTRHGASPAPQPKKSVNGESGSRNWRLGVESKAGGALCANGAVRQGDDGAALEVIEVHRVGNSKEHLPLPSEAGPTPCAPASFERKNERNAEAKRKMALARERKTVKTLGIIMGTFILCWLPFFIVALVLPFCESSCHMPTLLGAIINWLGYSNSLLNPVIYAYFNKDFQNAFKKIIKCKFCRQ
Sequence of D4.4 (h) (P21917 whole entry): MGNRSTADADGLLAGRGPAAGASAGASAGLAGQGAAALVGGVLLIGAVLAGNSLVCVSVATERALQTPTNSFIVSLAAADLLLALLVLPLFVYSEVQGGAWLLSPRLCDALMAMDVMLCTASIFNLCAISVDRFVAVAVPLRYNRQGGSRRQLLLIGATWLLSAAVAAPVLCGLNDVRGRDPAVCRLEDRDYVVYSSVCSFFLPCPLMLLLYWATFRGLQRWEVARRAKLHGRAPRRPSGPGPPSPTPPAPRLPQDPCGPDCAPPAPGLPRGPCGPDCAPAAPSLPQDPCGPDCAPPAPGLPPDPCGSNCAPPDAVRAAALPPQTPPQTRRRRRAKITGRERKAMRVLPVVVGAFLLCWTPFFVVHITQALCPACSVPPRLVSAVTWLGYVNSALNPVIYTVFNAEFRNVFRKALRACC
Sequence of D1 (P21728 whole entry): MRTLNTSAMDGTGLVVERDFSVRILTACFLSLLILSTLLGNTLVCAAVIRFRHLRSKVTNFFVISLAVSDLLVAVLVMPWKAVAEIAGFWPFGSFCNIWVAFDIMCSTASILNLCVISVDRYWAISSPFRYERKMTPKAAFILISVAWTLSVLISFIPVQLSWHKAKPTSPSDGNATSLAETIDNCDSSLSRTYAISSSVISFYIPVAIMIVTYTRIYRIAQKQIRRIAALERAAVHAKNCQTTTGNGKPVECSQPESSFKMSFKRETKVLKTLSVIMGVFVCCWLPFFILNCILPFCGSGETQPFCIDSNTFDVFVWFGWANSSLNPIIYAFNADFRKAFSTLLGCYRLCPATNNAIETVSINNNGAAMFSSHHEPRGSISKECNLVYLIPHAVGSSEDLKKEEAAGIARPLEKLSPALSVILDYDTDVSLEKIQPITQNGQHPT
Sequence of β1 (P08588 whole entry): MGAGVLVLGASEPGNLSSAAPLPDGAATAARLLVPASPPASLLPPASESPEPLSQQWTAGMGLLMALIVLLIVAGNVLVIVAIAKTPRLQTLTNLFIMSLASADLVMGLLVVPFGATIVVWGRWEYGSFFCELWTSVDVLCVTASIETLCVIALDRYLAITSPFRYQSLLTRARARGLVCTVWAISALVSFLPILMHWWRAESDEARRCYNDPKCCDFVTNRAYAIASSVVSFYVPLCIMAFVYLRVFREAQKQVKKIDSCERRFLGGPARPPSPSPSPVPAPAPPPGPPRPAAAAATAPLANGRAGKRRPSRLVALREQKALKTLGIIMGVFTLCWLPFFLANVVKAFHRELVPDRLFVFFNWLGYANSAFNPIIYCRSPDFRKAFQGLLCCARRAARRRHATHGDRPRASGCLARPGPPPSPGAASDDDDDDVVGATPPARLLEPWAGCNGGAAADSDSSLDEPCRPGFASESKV

For the compound `CCCCc1nc(N)c2nc(-n3nccn3)n(C)c2n1` [ST 1535, 2-butyl-9-methyl-8-(2H-1,2,3-triazol-2-yl)-9H-purine-6-ylamine], the inhibition at 1 µM was less than 10% in test [1]; less than 10% in [2] (1 μM, mean values, n = 2, class symbol); less than 10% in [4]; less than 10% in test [5]; less than 10% in [6]; less than 10% in test [7]. Moreover, the inhibition at 1 µM in test [13], in test [17] and in [22] was less than 10% each time. Further, the “percent inhibition of control specific binding” value (shortened to “percent inhibition”) in [3] is on record as “— (The symbol — indicates an inhibition of less than 10%.)”; in test [8], “— (The symbol — indicates an inhibition of less than 10%.)”; in [12] it was “— (The symbol — indicates an inhibition of less than 10%.)”; in [15], “— (The symbol — indicates an inhibition of less than 10%.)”; in [16] it was “— (The symbol — indicates an inhibition of less than 10%.)”; in [20] it was 24%. The “percent inhibition” value in test [21] was “— (The symbol — indicates an inhibition of less than 10%.)”. For the same compound, in test [9], the KiA1/KiA2a is reported as 47. The values for the Ki in test [10] and in [14] were 2.29 ± 0.58 nM and 1580 nM, respectively. For the same compound, the “time of immobility, forced swim test (FIG. 5)” value in test [11] was “reduces, in a dose-dependant manner, the time of immobility of the animal”. The “effect on CGS 21680-induced catalepsy (FIG. 2)” value in [18] is given as “significantly antagonises the appearance of catalepsy at all the observed times”. In [19], the “appearance of catalepsy in mice (FIG. 1)” value was “none of them brought about the appearance of catalepsy in mice”.
Take `CCCCCc1nc(N)c2nc(-n3nccn3)n(C)c2n1` [ST 2097, 9-methyl-2-pentyl-8-(2H-1,2,3-triazol-2-yl)-9H-purine-6-ylamine]: the inhibition at 1 µM in test [1] was less than 10%; in test [2], 13%; in [4], less than 10%; in test [5], less than 10%; in [6], less than 10%; in test [7], less than 10%. The inhibition at 1 µM in test [13], in test [17] and in test [22] was less than 10% each time. For the same compound, the “percent inhibition” value in test [3] is “— (The symbol — indicates an inhibition of less than 10%.)”; in [8], “— (The symbol — indicates an inhibition of less than 10%.)”; in test [12] it was “— (The symbol — indicates an inhibition of less than 10%.)”; in [15], “— (The symbol — indicates an inhibition of less than 10%.)”; in test [16] it was “— (The symbol — indicates an inhibition of less than 10%.)”; in test [20], 34%. Moreover, the “percent inhibition” value in test [21] is given as “— (The symbol — indicates an inhibition of less than 10%.)”. Besides, the Ki in test [14] came out at 519 nM.

Broadly, the inhibition is how much of the control response was suppressed. By Ki is commonly meant the dissociation constant of the complex between target and ligand, obtained from inhibition or displacement.
